From US20090298891A1, “Methods of Treating or Preventing Cancer Using Pyridine Carboxaldehyde Pyridine Thiosemicarbazone Radiosensitizing Agents” (GOVERNMENT OF THE US, AS REPRESENTED BY THE SECRETADY OF …, priority 2005, published 2009)

Tests used:
[1] = tested on: U251 (human glioma) cell line; assay: Clonogenic assay, U251; format: cell-based
Experimental: (§1) Cell lines and treatment. Three human tumor cell lines were evaluated: a glioma (U251), a pancreatic carcinoma (PSN1) and a prostate carcinoma (DU145), each was obtained from the Developmental Therapeutics Program, DCTD, NCI. The cell lines were grown in RPMI 1640 (Life Technologies, Rockville, Md.) containing […] (5 mM) and 5% FBS and maintained at 37° C. in an atmosphere of 5% CO2 and 95% room air. Triapine (3-amino-2-carboxaldehyde-pyridine thiosemicarbazone), provided by Vion Pharmaceuticals of New Haven, Conn., was dissolved in dimethylsulfoxide to a stock concentration of 10 mM and stored at −20° C. Cultures were irradiated using a Pantak (Solon, Ohio) X-ray source at a dose rate of 1.55 Gy/minute.
(§2) Clonogenic assay. Cell cultures were trypsinized to generate a single cell suspension and a specified number of cells were seeded into each well of 6-well tissue culture plates. In the first experiment, drug or vehicle control was, added at specified concentrations, and the plates were irradiated 16 hours later. Immediately after irradiation, the growth media was aspirated, and fresh media was added. In the second experiment, cells were seeded, and irradiated 6 hours after seeding. Immediately after irradiation, the cells were treated with the specified concentration of drug. After 16 hours of exposure, drug was aspirated, and replaced with fresh media. Ten to twelve days after seeding, colonies were stained with crystal violet, and the number of colonies containing at least 50 cells was determined and the surviving fractions were calculated. Survival curves were generated after normalizing for the cytotoxicity generated by drug alone. Data presented are the mean±SEM from at least three independent experiments. Radiation dose enhancement factors (DEFs) represent the ratio of radiation dose required to achieve 10% survival in the control cells and the drug-treated cells.

[2] = tested on: PSN1 (pancreatic carcinoma) cell line; assay: Clonogenic assay, PSN1; format: cell-based, human
Experimental: as §1, §2

[3] = tested on: PSN1 tumors; assay: In vivo tumor growth delay assay, PSN1 xenografts; parameters: species or system mice
Experimental: (§3) In Vivo Tumor Growth Delay Assay. Male 6 week old athymic nude mice (NCr nu/nu) were used in these studies. Mice, housed in filter-topped cages, were provided autoclaved feed and hyperchlorinated water ad libitum. U251 or PSN1 tumor cells were implanted subcutaneously in the hind leg. Irradiation was performed using a Pantak (Solon, Ohio) irradiator with animals restrained in a custom lead jig, which allowed for the localized irradiation of tumors at the base of the tail. When tumors reached 177 mm^3 (7×7 mm) Triapine (30-60 mg/kg) was delivered by intraperitoneal injection and 6 h later tumors were irradiated with a single dose of 4 or 5 Gy. To obtain growth curves, perpendicular diameter measurements of each tumor were collected every 3 days with calipers, and the volumes were calculated using the formula (L×W×W)/2. Tumors were followed until the group's tumors were greater than 1500 mm^3. Specific tumor growth delay was calculated as the number of days for the treated tumors to grow to 1400 mm^3 minus the number of days for the control group to reach the same size. Each experimental group contained 10 mice and the untreated group contained 15 mice. All animal studies were conducted in accordance with the principles and procedures outlined in the U.S.P.H.S. Guide for the Care and Use of Laboratory Animals in an AAALAC-approved facility under an approved animal protocol.
In vivo activity of Triapine in conjunction with radiation was determined through growth delays in mice with subcutaneous human tumor xenografts. Based on the above described in vitro results, xenografts of PSN1 and U251 were evaluated in vivo. Triapine (40 mg/kg) was given 6 hours prior to a single radiation dose (4 or 5 Gy). After 3 volumetric doublings of the PSN1 tumors, Triapine alone yielded a 1.6 day growth delay, and radiation caused a 9.8 day growth delay. […] See, FIG. 8 (U251) and FIG. 9 (PSN1) for a graph of tumor growth delay data.

[4] = tested on: DU145 (prostate carcinoma) cell line; assay: Clonogenic assay, DU145; format: cell-based, human
Experimental: as §1, §2

[5] = tested on: U251 tumors; assay: In vivo tumor growth delay assay, U251 xenografts; parameters: species or system mice; details: combination of Triapine and radiation
Experimental: as §3, with “Each experimental group contained 10 mice and the untreated group contained 15 mice. All animal studies were conducted in accordance with the principles and procedures outlined in the U.S.P.H.S. Guide for the Care and Use of Laboratory Animals in an AAALAC-approved facility under an approved animal protocol.” left out
In vivo activity of Triapine in conjunction with radiation was determined through growth delays in mice with subcutaneous human tumor xenografts. Based on the above described in vitro results, xenografts of PSN1 and U251 were evaluated in vivo. […]

[6] = tested on: U251 cells; assay: Cell cycle phase analysis (flow cytometry); format: cell-based, human; details: 16 hours of Triapine exposure (5 μM)
Experimental: Cell Cycle Phase Analysis. Cell cycle phase distribution was analyzed using flow cytometry. Cells were seeded in T75 flasks at subconfluent density and exposed to Triapine, or vehicle for 16 hours, at which time cells were fixated and stained with propidium iodide for flow cytometry analysis at the Clinical Services Program at the National Cancer Institute-Frederick. A two-tailed, paired t-test was performed on the data from the replicated analysis.

[7] = tested on: DNA synthesis activity in U251 cells; assay: DNA synthesis assay (BrdU incorporation); format: cell-based, human; details: after 16 hours of Triapine exposure
Experimental: DNA Synthesis Assay. DNA synthesis was quantified as an indirect measure of ribonucleotide reductase activity. A 5-bromo-2′-deoxyuridine (BrdU) incorporation assay kit (#1669915) produced by Roche Applied Science (Mannheim, Germany) was used. Cells were seeded in wells of a black wall 96-well plate and allowed to incubate for 24 hours. Drug was added, and after 16 hours of exposure, 10 μM BrdU pulses were added hourly for 2 hours, according to manufacturer's instructions. After fixation, an anti-BrdU peroxidase antibody conjugate was applied for 90 minutes at room temperature. The conjugate was then rinsed three times, and luminol was added. Chemiluminescence was detected with a Wallac 1420 multilabel counter (Perkin Elmer Life Sciences, Turku, Finland), and data was exported for off-line analysis. Triplicate samples were run for three independent experiments; data is presented as the mean of three experiments±SEM.

NC(=S)N/N=C/c1ncccc1N [Triapine, 3-amino-2-carboxaldehyde-pyridine thiosemicarbazone]
Survival following 16 hours of Triapine exposure ([1]; U251, 5 μM, drug alone): 53% | radiosensitization / DEF, Triapine after irradiation ([1]; U251, Triapine for 16 hours after irradiation): DEFs similar to those obtained when cells were exposed prior to irradiation | dose enhancement factor (DEF) ([1]; U251, Triapine given prior to radiation, ratio of radiation dose for 10% survival): 1.50 | Survival following 16 hours of Triapine exposure ([2]; PSN1, 3 μM, drug alone): 33% | radiosensitization / DEF, Triapine after irradiation ([2]; PSN1, Triapine for 16 hours after irradiation): DEFs similar to those obtained when cells were exposed prior to irradiation | dose enhancement factor (DEF) ([2]; PSN1, Triapine given prior to radiation, ratio of radiation dose for 10% survival): 1.64 | growth delay ([3]; Triapine alone, 40 mg/kg intraperitoneal, after 3 volumetric doublings of PSN1 tumors): 1.6 days | growth delay ([3]; combination of Triapine (40 mg/kg, 6 hours prior) and single radiation dose (4 or 5 Gy), PSN1 tumors): 20.9 days | DEF (in vivo) ([3]; combination of Triapine and radiation, PSN1 tumors): 2.0 | Survival following 16 hours of Triapine exposure ([4]; DU145, 5 μM, drug alone): 68% | radiosensitization / DEF, Triapine after irradiation ([4]; DU145, Triapine for 16 hours after irradiation): DEFs similar to those obtained when cells were exposed prior to irradiation | dose enhancement factor (DEF) ([4]; DU145, Triapine given prior to radiation, ratio of radiation dose for 10% survival): 2.05 | growth delay / DEF effect of combination [5]: a similar effect was observed | percentage of cells in G1 [6]: increased | percentage of cells in G2/M [6]: decreased | DNA synthesis [7]: less than 5 % of control | time for DNA synthesis to return to control levels [7]: 7 h
